# Results published in patent publication US8470807B2, “Antioxidant” (Morinaga Milk Industry Co., Ltd., priority 2008, dated 2013).
# What was measured:
# ApoE gene-deficient mice [1] = experiment: Number of atherosclerotic lesions (plaques) in thoracic aorta of ApoE gene-deficient mice; assay type: in vivo, mouse; details: 40 days after start, oral once a day for 39 consecutive days; for Number of plaques formed in thoracic aorta: 1 ml of 30 μg/ml per 25 g body weight, Oil red staining
# Text: In addition, it is generally known that a primary lesion of arteriosclerosis is caused by oxidized LDL. Therefore, it is also possible to evaluate the action of reducing a risk of arteriosclerosis through inhibiting formation of a lipid peroxide of the test sample by counting the number of atherosclerotic lesions (plaques) in the artery of each model mouse treated with the test sample.
# In Example 2, a cyclolanostane compound, a lophenol compound, and a mixture of the cyclolanostane compound and the lophenol compound were each evaluated on the effect of reducing a risk of arteriosclerosis through the effect of inhibiting a lipid peroxide by counting the number of atherosclerotic lesions (plaques) in the artery using known arteriosclerosis model animals, ApoE gene-deficient mice.
# Test samples 1 to 6, a control sample, and a negative sample were prepared in the same way as in Example 1 above and were each used for a test.
# (§1) Six-week-old male ApoE gene-deficient mice (purchased from Japan SLC, Inc.) were preliminarily fed with a high-cholesterol diet (manufactured by Research Diets, Inc.) for 2 weeks and divided into groups each of 15 mice.
# To mice of each group, the sample solution including the test samples, control sample, or negative sample was separately administered orally once a day for 39 consecutive days using medical probes in an amount of 1 ml per 25 g of mouse body weight. Forty days after the start of administration, the thoracic aorta part was fixed with formalin and stained with Oil red, and the number of plaques was counted.
# ApoE gene-deficient mice [2] = experiment: Inhibition of lipid peroxide formation in blood (serum TBARS/MDA) in ApoE gene-deficient mice; assay type: in vivo, mouse; details: 30 μg per day; for Amount of lipid peroxide in blood (MDA concentration): serum, 14 days after start of administration, oral once a day, high-cholesterol diet
# Text: The actions of inhibiting formation of a lipid peroxide of various test samples including the antioxidant of the present invention can be evaluated by using, as an index, the amount of a thiobarbituric acid (TBA) reactive substance (TBARS), for example. Specifically, it may be defined that the larger the amount of the TBARS, the larger the amount of a lipid peroxide formed.
# Examples of the TEARS include malondialdehyde (MDA) which reacts with TBA under high-temperature and acidic conditions and is a natural by-product of a lipid peroxidation. An MDA-TBA adduct can be detected by measurement of an absorbance at 530 to 540 nm to perform colorimetric measurement of MDA.
# Also, the action of inhibiting formation of a lipid peroxide of a test sample can be evaluated using ApoE gene-deficient mice, which are often used as model animals which develop arteriosclerosis by hypercholesterolemia (hyper-LDL-cholesterolemia) (for example, see Reference Document 1: “Saibokogaku (Cell Engineering),” Extra Issue, “Medical Experiment Manual” series, Strategy for Study of Arteriosclerosis+Hyperlipidemia, Shujunsha Co., 1st edition, 1st impression, published on Apr. 1, 1996, pp. 441-443).
# Further, in the model mice, the lipid peroxide level is higher than that of normal mice, and formation of atherosclerotic lesions (plagues) in the artery is observed with time. Therefore, the action of inhibiting formation of a lipid peroxide of a test sample can be evaluated by administering the test sample to the model mice and measuring a lipid peroxide in blood of the model mice.
# Those samples were separately dissolved in propylene glycol, and diluted with distilled water so as to obtain test solutions with the concentration of each compound of 30 μg/ml, and the solutions were used for a test. Note that physiological saline was used as a negative sample.
# as §1
# To mice of each group, the test solution including the test samples 1 to 6, control sample, or negative sample was separately administered orally once a day for […] using medical probes in an amount of 1 ml per 25 g of mouse body weight. At an early period after the start of administration (14 days after the start of administration), blood was collected from the tail vein of each mouse, and serum was separated. Then, the amount of TBARS was measured using OxiSelect TBARS Assay Kit (manufactured by […]). Meanwhile, as a control, blood was collected from each normal mouse in the same manner as above.
SMILES,plaque formation compared with the negative sample (ApoE gene-deficient mice [1]),Number of plaques formed in thoracic aorta (ApoE gene-deficient mice [1]),"effect of inhibiting formation of a lipid peroxide in blood compared with the negative sample (ApoE gene-deficient mice [2]; serum TBARS, 14 days after start of oral administration)",Amount of lipid peroxide in blood (MDA concentration) (ApoE gene-deficient mice [2]) [µM]
"CC[C@H](C)C(=O)O[C@H]1C[C@H](O)C=C2C=C[C@H](C)[C@H](CC[C@@H](O)C[C@@H](O)CC(=O)[O-])[C@H]21.[Na+] [Control sample, reference compound]",no significant difference,10.6 ± 3.2,a significant decrease in amount of a lipid peroxide in blood was not observed,0.93 ± 0.05
"CC(C)CCCC(C)C1CCC2(C)C3CCC4C(C)(C)C(O)CCC45CC35CCC12C (centres unmarked) [Test sample 1, 9,19-Cyclolanostan-3-ol]",–,6.0 ± 0.7,–,0.62 ± 0.01
"C=C(CCC(C)C1CCC2(C)C3CCC4C(C)(C)C(O)CCC45CC35CCC12C)C(C)C (centres unmarked) [Test sample 2, 24-methylene-9,19-cyclolanostan-3-ol]",–,5.6 ± 1.5,–,0.5 ± 0.19
"CC(C)CCC[C@@H](C)[C@H]1CC[C@H]2C3=CCC4C(C)C(O)CC[C@]4(C)[C@H]3CC[C@]12C (some centres unmarked) [Test sample 3, 4-Methylcholest-7-en-3-ol]",–,6.2 ± 1.9,–,0.71 ± 0.08
"CC(C)C(C)CCC(C)C1CCC2C3=CCC4C(C)C(O)CCC4(C)C3CCC21C (centres unmarked) [Test sample 4, 4-methylergost-7-en-3-ol]",–,5.0 ± 1.4,–,0.69 ± 0.05
"CCC(CCC(C)C1CCC2C3=CCC4C(C)C(O)CCC4(C)C3CCC21C)C(C)C (centres unmarked) [Test sample 5, 4-methylstigmast-7-en-3-ol]",–,5.6 ± 2.1,–,0.72 ± 0.02
